How the values were obtained:
MCR-1 protein = biological target: T1, MCR-1 protein (Escherichia coli, UniProt A0A0R6L508); test: Fluorescence quenching of MCR-1 protein; assay type: binding; conditions: autofluorescence at 323 nm; increasing LC100 concentration
T1 construct: purchased Bioprocessing technology institute, A*STAR (Singapore, Singapore)
Experimental: However, EtBr is membrane impermeable, which means that it can only enter the bacterial cell and bind to DNA and emit fluorescence only when both the bacterial outer and inner membranes are perturbed. […] It is also possible that LC100 may have other targets. One possible target is the MCR-1 protein. To understand the interaction of LC100 and the MCR-1 protein, the fluorescence of MCR-1 protein in the presence of different concentration of LC100 was measured. MCR-1 protein contains several tryptophan residues, and autofluoresces at 323 nm.

[1] = test system: KLPN multi-drug resistant strains; test: Synergy of LC100 with colistin against multi-drug resistant strains (Table 5); assay type: cell-based, Klebsiella pneumonia
Experimental: The MICs of the individual drugs and LC compound in combinations were determined using the broth microdilution technique as recommended by the CLSI whereby the two anti-microbial agents were added in an equal amount. (e.g.: 50 μL of Colistin: 50 μL of LC compounds). Diluted media containing compounds and antibiotics will be serially diluted 2-fold, and LC compounds and antibiotics alone or in combination will be assayed at fixed synergy concentration. In all cases, the lowest concentration at which no visible growth occurred was be recorded to be the MIC value of individual and combined antibacterial agents. The results were obtained after 24 hours of incubation.

T1 sequence (A0A0R6L508 whole entry): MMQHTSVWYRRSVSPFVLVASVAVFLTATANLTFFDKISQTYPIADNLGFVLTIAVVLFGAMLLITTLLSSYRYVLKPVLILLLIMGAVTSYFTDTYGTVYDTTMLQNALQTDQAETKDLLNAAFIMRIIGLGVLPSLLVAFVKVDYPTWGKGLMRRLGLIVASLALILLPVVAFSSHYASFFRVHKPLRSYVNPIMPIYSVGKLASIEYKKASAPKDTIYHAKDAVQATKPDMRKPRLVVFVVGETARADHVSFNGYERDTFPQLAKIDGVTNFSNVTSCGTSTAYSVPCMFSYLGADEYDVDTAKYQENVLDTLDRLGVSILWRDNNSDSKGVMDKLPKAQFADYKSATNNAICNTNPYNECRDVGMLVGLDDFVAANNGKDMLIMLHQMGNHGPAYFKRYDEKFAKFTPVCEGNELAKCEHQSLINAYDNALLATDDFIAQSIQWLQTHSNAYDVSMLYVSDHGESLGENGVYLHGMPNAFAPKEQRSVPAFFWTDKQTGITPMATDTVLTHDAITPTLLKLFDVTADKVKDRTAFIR

Q: What does the source list for `CCN(CC)CCCCOc1ccc(/C=C/C(=O)c2ccc(OCCCCN(CC)CC)c(CC=C(C)C)c2O)cc1` [LC100]?
A: fluorescence of MCR-1 protein (quenching) (MCR-1 protein): the fluorescence decreases; Colistin MIC in the presence of LC100 ([1]; strain KLPN 8852, LC 100 2 μg): >25 µg/mL; Colistin MIC in the presence of LC100 ([1]; strain KLPN 8852, LC 100 5 μg): 25 µg/mL; Colistin MIC in the presence of LC100 ([1]; strain KLPN 15588, LC 100 2 μg): 0.39 µg/mL; Colistin MIC in the presence of LC100 ([1]; strain KLPN 15588, LC 100 5 μg): <0.0975 µg/mL; Colistin MIC in the presence of LC100 ([1]; strain KLPN 24076, LC 100 2 μg): 0.39 µg/mL; Colistin MIC in the presence of LC100 ([1]; strain KLPN 24076, LC 100 5 μg): <0.0975 µg/mL; Colistin MIC in the presence of LC100 ([1]; strain KLPN 27025, LC 100 2 μg): 0.195 µg/mL; Colistin MIC in the presence of LC100 ([1]; strain KLPN 27025, LC 100 5 μg): <0.0975 µg/mL
